Columns and labels:
hCB1R [1] = biological target: T1, hCB1R (Homo sapiens, UniProt P21554); experiment: biochemical; format: binding; settings: CHO membranes; Leiden, HU210 and SR144528 from Roche
T1 construct: host or cells: CHO

hCB2R [2] = biological target: T2, hCB2R (Homo sapiens, UniProt P34972); design: expressed in transfected cells; host or cells: Flp-In-293 (Invitrogen #R750-07), pcDNA5/FRT; settings: hCB2R
Rat recombinant TRPV3 = biological target: T3, Rat recombinant TRPV3 (Rattus norvegicus, UniProt Q4QYD9); experiment: cell-based; format: cell-based; settings: for EC50: read-out: TRPV3 Potency EC50; for IC50: vs thymol 100μM, read-out: TRPV3 IC50 for antagonism or desensitization
T3 construct: expressed in transfected cells; host or cells: HEK293 (TRPV3-HEK-293, gift from HB Bradshaw, Indiana University)
T3 sequence (Q4QYD9 1-791): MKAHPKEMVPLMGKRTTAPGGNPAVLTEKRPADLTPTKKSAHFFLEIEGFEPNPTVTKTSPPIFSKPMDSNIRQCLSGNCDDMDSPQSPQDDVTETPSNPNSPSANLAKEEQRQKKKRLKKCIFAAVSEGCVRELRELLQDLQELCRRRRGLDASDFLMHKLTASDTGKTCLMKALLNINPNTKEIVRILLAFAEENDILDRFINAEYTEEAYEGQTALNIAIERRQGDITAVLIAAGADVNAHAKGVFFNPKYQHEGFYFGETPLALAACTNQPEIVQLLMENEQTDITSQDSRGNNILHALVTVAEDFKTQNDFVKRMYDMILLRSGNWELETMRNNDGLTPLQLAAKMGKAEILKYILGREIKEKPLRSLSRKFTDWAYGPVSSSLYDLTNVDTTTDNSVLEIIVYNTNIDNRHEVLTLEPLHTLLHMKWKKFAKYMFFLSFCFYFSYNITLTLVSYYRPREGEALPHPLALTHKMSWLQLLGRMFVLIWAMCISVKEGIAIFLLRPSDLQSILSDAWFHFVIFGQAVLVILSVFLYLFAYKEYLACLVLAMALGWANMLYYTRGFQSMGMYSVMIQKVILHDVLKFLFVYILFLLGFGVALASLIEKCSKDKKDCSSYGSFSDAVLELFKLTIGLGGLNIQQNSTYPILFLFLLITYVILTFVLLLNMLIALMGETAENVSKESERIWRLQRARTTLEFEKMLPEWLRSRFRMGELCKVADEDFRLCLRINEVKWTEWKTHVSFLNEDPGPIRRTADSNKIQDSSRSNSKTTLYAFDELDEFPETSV

hCB2R [3] = biological target: T2, hCB2R; experiment: biochemical; format: binding; settings: CHO membranes; Leiden, HU210 and SR144528 from Roche
hCB1R [4] = biological target: T1, hCB1R; experiment: cell-based; format: cell-based
BZD (central) = format: binding; settings: 10 µM
AT1 (h) = biological target: T4, AT1 (h) (Homo sapiens, UniProt P30556); experiment: CEREP panel; format: binding; settings: 10 µM
T4 construct: CEREP
T4 sequence (P30556 1-359): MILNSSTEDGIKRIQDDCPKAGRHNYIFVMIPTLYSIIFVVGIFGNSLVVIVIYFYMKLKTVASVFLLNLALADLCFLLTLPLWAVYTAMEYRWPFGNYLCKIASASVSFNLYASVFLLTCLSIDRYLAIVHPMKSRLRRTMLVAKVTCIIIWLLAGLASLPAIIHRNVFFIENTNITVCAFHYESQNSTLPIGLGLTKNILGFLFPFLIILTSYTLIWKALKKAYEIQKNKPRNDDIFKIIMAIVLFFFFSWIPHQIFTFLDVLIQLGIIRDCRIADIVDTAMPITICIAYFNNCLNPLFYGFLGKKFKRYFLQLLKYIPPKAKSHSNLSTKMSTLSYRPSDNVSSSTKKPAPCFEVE

[5] = tested on: AEA cellular uptake in U937 cells; experiment: cells; format: cell-based, human; settings: for AEA reuptake Efficacy (% inhibition) U937 cells: from dose-response; for IC50: read-out: AEA reuptake IC50 (95% CI) U937 cells
hCB1R [6] = biological target: T1, hCB1R; experiment: cell-based; format: cell-based; settings: for Emax ± SEM GIRK hCB1R: normalized to CP55940
beta 1 (h) = biological target: T5, beta 1 (h) (Homo sapiens, UniProt P08588); experiment: biochemical; format: binding; settings: 10 µM
T5 construct: CEREP
T5 sequence (P08588 whole entry): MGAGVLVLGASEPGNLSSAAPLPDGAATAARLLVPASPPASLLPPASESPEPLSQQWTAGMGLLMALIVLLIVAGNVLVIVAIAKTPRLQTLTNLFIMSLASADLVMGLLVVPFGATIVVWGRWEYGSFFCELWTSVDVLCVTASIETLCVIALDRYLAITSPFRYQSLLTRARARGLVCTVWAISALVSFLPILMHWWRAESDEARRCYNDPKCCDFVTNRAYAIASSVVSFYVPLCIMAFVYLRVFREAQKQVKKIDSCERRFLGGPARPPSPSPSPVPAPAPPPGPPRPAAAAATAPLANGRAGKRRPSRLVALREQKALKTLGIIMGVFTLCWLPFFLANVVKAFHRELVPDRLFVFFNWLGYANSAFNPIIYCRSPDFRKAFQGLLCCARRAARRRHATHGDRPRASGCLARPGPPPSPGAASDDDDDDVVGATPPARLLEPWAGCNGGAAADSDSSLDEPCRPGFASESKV

T2 sequence (P34972 whole entry): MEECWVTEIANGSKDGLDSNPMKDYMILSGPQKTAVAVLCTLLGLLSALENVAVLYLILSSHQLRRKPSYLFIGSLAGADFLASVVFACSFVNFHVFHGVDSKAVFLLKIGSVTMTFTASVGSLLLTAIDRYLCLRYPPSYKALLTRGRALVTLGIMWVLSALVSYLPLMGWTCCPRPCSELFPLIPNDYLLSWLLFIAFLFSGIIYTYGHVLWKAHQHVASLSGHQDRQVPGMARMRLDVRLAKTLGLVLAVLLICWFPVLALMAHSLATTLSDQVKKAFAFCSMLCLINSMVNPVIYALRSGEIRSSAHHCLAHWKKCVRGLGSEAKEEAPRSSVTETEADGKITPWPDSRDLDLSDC
T1 sequence (P21554 whole entry): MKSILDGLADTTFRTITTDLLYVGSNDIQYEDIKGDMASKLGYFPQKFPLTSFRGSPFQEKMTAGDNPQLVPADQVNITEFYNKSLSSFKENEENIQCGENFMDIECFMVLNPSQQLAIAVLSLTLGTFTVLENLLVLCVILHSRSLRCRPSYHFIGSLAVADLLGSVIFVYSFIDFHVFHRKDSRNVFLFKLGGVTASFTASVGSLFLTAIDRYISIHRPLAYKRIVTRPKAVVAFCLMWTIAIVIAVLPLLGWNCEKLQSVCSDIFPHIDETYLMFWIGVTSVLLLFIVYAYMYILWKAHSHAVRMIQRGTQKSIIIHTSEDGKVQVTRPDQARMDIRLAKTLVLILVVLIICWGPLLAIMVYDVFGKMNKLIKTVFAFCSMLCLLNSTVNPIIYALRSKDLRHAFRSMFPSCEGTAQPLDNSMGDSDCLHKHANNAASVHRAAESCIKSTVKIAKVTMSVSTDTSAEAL

CCCCCCC(C)(C)c1cc(OC)c(C2=C[C@H]3CC[C@]2(CO)C3(C)C)c(OC)c1 [HU910]
pKi ± SEM hCB1R (hCB1R [1]): < 5
GIRK-GTPγS bias factor (BF) (hCB2R [2]): 0.31
GIRK-GTPγS ΔΔlogR (hCB2R [2]): -0.51
GIRK-cAMP bias factor (BF) (hCB2R [2]): 2.42
GIRK-cAMP ΔΔlogR (hCB2R [2]): 0.38 ± 0.20
GTPγS-cAMP bias factor (BF) (hCB2R [2]): 7.73
GTPγS-cAMP ΔΔlogR (hCB2R [2]): 0.89 ± 0.31
LogR GIRK (hCB2R [2]): 5.90
LogR GTPγS (hCB2R [2]): 6.82
LogR cAMP (hCB2R [2]): 8.37
LogR pERK (hCB2R [2]): 6.94
LogR β-AR (hCB2R [2]): 7.72
pERK-GIRK bias factor (BF) (hCB2R [2]): 0.73
pERK-GIRK ΔΔlogR (hCB2R [2]): -0.13
pERK-GTPγS bias factor (BF) (hCB2R [2]): 0.23
pERK-GTPγS ΔΔlogR (hCB2R [2]): -0.64
pERK-cAMP bias factor (BF) (hCB2R [2]): 1.77
pERK-cAMP ΔΔlogR (hCB2R [2]): 0.25 ± 0.28
β-AR-GIRK bias factor (BF) (hCB2R [2]): 15.07
β-AR-GIRK ΔΔlogR (hCB2R [2]): 1.18 ± 0.22
β-AR-GTPγS bias factor (BF) (hCB2R [2]): 4.71
β-AR-GTPγS ΔΔlogR (hCB2R [2]): 0.67 ± 0.32
β-AR-cAMP bias factor (BF) (hCB2R [2]): 36.90
β-AR-cAMP ΔΔlogR (hCB2R [2]): 1.57 ± 0.15
β-AR-pERK bias factor (BF) (hCB2R [2]): 20.56
β-AR-pERK ΔΔlogR (hCB2R [2]): 1.31 ± 0.29
ΔLogR GIRK (hCB2R [2]; reference CP55940): -1.96
ΔLogR GTPγS (hCB2R [2]; reference CP55940): -1.46
ΔLogR cAMP (hCB2R [2]; reference CP55940): -2.35
ΔLogR pERK (hCB2R [2]; reference CP55940): -2.1
ΔLogR β-AR (hCB2R [2]; reference CP55940): -0.78
RE GIRK (hCB2R [2]; relative effectiveness): 0.01
RE GTPγS (hCB2R [2]; relative effectiveness): 0.03
RE cAMP (hCB2R [2]; relative effectiveness): 0.005
RE pERK (hCB2R [2]; relative effectiveness): 0.01
RE β-AR (hCB2R [2]; relative effectiveness): 0.16
TRPV3 Efficacy (% ionomycin 4μM) (Rat recombinant TRPV3): 31.3%
EC50 (Rat recombinant TRPV3): 0.12 ± 0.05 µM
IC50 (Rat recombinant TRPV3): 12.9 µM
pKi ± SEM hCB2R (hCB2R [3]): 7.22 ± 0.31
Emax ± SEM β-AR recruitment hCB1R (hCB1R [4]): -97 ± 4
pEC50 ± SEM β-AR recruitment hCB1R (hCB1R [4]): 5.31 ± 0.06
% inhibition BZD (central) (BZD (central)): 0%
% inhibition AT1 (h) (AT1 (h)): 37%
AEA reuptake Efficacy (% inhibition) U937 cells [5]: 70%
IC50 [5]: 1.56 µM
pEC50 ± SEM GIRK hCB1R (hCB1R [6]): < 5
Emax ± SEM GIRK hCB1R (hCB1R [6]): 7 ± 5%
% inhibition beta 1 (h) (beta 1 (h)): -4%

CN1CCCC[C@H]1Cn1cc(C(=O)c2cc([N+](=O)[O-])ccc2I)c2ccccc21 [(S)-AM1241]
pKi ± SEM hCB1R (hCB1R [1]): < 5
GIRK-GTPγS bias factor (BF) (hCB2R [2]): 0.16
GIRK-GTPγS ΔΔlogR (hCB2R [2]): -0.79
LogR GIRK (hCB2R [2]): 5.70
LogR GTPγS (hCB2R [2]): 6.9
LogR pERK (hCB2R [2]): 7.54
LogR β-AR (hCB2R [2]): 5.97
pERK-GIRK bias factor (BF) (hCB2R [2]): 4.72
pERK-GIRK ΔΔlogR (hCB2R [2]): 0.68 ± 0.37
pERK-GTPγS bias factor (BF) (hCB2R [2]): 0.77
pERK-GTPγS ΔΔlogR (hCB2R [2]): -0.11
β-AR-GIRK bias factor (BF) (hCB2R [2]): 0.43
β-AR-GIRK ΔΔlogR (hCB2R [2]): -0.37 ± 0.33
β-AR-GTPγS bias factor (BF) (hCB2R [2]): 0.07
β-AR-GTPγS ΔΔlogR (hCB2R [2]): -1.16 ± 0.57
β-AR-pERK bias factor (BF) (hCB2R [2]): 0.09
β-AR-pERK ΔΔlogR (hCB2R [2]): -1.05 ± 0.44
ΔLogR GIRK (hCB2R [2]; reference CP55940): -2.17
ΔLogR GTPγS (hCB2R [2]; reference CP55940): -1.38
ΔLogR pERK (hCB2R [2]; reference CP55940): -1.49
ΔLogR β-AR (hCB2R [2]; reference CP55940): -2.54
RE GIRK (hCB2R [2]; relative effectiveness): 0.01
RE GTPγS (hCB2R [2]; relative effectiveness): 0.04
RE pERK (hCB2R [2]; relative effectiveness): 0.03
RE β-AR (hCB2R [2]; relative effectiveness): 0.003
TRPV3 Efficacy (% ionomycin 4μM) (Rat recombinant TRPV3): 16.2%
EC50 (Rat recombinant TRPV3): 9 µM
IC50 (Rat recombinant TRPV3): > 50 µM
pKi ± SEM hCB2R (hCB2R [3]): 7.02 ± 0.15
Emax ± SEM β-AR recruitment hCB1R (hCB1R [4]): 2 ± 1
pEC50 ± SEM β-AR recruitment hCB1R (hCB1R [4]): < 5
% inhibition BZD (central) (BZD (central)): -1%
% inhibition AT1 (h) (AT1 (h)): 1%
AEA reuptake Efficacy (% inhibition) U937 cells [5]: 97%
IC50 [5]: 3.7 µM
pEC50 ± SEM GIRK hCB1R (hCB1R [6]): < 5
Emax ± SEM GIRK hCB1R (hCB1R [6]): 19 ± 3%
% inhibition beta 1 (h) (beta 1 (h)): 14%
